The source of these data is ChEMBL document CHEMBL1147598, “1-(2-Naphthyl)-1H-pyrazole-5-carboxylamides as potent factor Xa inhibitors. Part 3: Design, synthesis and SAR of orally bioavailable benzamidine-P4 inhibitors” (Bioorg Med Chem Lett, 2004).

In series [1] the target is T1, Coagulation factor X (Homo sapiens, UniProt P00742). Kind of series: In vitro inhibitory activity against human coagulation factor X.
The target of series [2] is T1, Coagulation factor X. The experiment in a line: Binding affinity for human Coagulation factor X.
A short description of series [3]: In vitro anticoagulant potency measured in human plasma by thrombin generation (TG) assay expressed as 2 x TG. Type of series: functional.
For the next series, the target named is Prothrombin (Homo sapiens, UniProt P00734). Kind of series: Inhibitory activity of compound against thrombin.
The test system of series [4] is Oryctolagus cuniculus. Kind of series: In vivo inhibition of thrombus accretion at a plasma level of 4.5 […] in the rabbit deep vein thrombosis (DVT) model. It is filed as functional.
A short description of series [5]: (§1) Clearance rate in rat. Conditions: in vivo. Type of series: ADME, organism-based.
Series [6] has as its target Tissue-type plasminogen activator (Homo sapiens, UniProt P00750). The experiment in a line: Inhibitory activity of compound against tissue type plasminogen activator.
The target in the next series is Serine protease 1 (Homo sapiens, UniProt P07477). Kind of series: Inhibitory activity of compound against trypsin.
Sequence of Serine protease 1 (P07477 whole entry): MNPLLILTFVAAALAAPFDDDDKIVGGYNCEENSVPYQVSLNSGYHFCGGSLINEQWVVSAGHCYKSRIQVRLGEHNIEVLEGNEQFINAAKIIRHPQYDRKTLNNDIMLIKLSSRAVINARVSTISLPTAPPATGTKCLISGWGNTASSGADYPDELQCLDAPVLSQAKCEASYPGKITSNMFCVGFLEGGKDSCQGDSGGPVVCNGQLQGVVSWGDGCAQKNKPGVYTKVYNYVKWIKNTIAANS
In series [7] the target is Plasminogen (Homo sapiens) (UniProt P00747). Kind of series: Inhibitory activity of compound against plasmin.
Sequence of Plasminogen (Homo sapiens) (P00747 whole entry, looked up): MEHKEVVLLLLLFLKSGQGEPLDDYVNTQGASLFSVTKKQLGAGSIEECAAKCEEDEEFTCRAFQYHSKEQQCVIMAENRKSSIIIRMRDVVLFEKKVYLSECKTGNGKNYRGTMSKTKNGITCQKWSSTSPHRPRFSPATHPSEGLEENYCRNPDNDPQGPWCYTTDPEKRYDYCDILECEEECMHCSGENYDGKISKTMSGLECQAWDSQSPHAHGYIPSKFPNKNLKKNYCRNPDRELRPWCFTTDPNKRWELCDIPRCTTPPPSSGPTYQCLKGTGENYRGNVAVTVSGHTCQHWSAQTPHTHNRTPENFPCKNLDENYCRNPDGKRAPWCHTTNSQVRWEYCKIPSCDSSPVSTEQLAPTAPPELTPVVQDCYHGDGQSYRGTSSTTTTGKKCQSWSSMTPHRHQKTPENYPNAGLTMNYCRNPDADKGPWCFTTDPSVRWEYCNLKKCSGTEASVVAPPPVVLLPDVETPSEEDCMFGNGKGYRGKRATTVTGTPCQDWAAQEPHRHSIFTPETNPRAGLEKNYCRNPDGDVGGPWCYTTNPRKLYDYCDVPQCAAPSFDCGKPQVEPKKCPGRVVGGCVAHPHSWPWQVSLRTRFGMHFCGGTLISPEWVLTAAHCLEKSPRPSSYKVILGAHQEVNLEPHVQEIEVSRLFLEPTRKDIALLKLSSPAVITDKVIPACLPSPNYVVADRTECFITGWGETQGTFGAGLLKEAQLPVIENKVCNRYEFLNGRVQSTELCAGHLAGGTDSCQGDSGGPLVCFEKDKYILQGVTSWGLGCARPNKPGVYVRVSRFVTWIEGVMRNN
Series [8] has as its system Oryctolagus cuniculus. Kind of series: In vivo inhibition of thrombus accretion at a plasma level of 3.7 […] in the rabbit deep vein thrombosis (DVT) model. It is filed as functional.
Series [9] is described as follows: (§2) Volume of distribution in rat. Type of series: ADME, organism-based. The settings on record: in vivo.
The nature of series [10]: Bioavailability in rat. Type of series: ADME, organism-based. Conditions: in vivo.
The target of series [11] is Vitamin K-dependent protein C (Homo sapiens, UniProt P04070). Kind of series: Inhibitory activity against activated protein C was determined.
Sequence of Vitamin K-dependent protein C (P04070 43-197 limits assumed): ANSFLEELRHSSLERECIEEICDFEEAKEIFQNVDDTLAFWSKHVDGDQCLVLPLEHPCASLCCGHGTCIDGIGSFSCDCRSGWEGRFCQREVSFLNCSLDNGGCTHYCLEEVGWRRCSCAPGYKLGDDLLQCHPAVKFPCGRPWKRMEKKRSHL
Sequence of Vitamin K-dependent protein C (P04070 212-461 limits assumed): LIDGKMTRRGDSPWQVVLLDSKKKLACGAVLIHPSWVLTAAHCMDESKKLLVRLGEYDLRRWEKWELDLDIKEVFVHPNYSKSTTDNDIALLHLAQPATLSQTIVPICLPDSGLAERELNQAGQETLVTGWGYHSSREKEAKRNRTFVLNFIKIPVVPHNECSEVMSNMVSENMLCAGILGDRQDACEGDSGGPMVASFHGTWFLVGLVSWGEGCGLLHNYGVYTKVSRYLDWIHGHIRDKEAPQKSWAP
Another series deals with Kallikrein-1 (Homo sapiens, UniProt P06870). Kind of series: Inhibitory activity of compound against kallikrein.
Sequence of Kallikrein-1 (P06870 whole entry): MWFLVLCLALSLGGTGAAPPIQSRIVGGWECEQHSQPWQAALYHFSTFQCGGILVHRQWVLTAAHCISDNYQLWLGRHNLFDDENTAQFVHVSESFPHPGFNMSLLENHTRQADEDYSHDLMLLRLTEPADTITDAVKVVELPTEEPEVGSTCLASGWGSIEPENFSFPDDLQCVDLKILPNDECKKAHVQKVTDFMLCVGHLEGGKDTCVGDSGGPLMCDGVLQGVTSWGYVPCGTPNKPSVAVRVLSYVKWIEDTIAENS
Series [12] is described as follows: (§3) Half-life determined in rat. It is filed as ADME, organism-based. Conditions: in vivo.
The species entered for series [13] is Rattus norvegicus. The series is described as §1. Type of series: ADME, organism-based. The settings on record: in vivo.
The species named for series [14] is Rattus norvegicus. The series is described as §2. Conditions: in vivo. Type of series: ADME, organism-based.
The species named for series [15] is Rattus norvegicus. The description is as §3. Conditions: in vivo. Type of series: ADME, organism-based.
The subject of series [16] is Oryctolagus cuniculus. Kind of series: In vivo inhibition of thrombus accretion at a plasma level of 4.6 […] in the rabbit deep vein thrombosis (DVT) model. It is filed as functional.
Series [17] relates to Oryctolagus cuniculus. Kind of series: In vivo inhibition of thrombus accretion at a plasma level of 3.9 […] in the rabbit deep vein thrombosis (DVT) model. Type of series: functional.

Sequence of Tissue-type plasminogen activator (P00750 whole entry): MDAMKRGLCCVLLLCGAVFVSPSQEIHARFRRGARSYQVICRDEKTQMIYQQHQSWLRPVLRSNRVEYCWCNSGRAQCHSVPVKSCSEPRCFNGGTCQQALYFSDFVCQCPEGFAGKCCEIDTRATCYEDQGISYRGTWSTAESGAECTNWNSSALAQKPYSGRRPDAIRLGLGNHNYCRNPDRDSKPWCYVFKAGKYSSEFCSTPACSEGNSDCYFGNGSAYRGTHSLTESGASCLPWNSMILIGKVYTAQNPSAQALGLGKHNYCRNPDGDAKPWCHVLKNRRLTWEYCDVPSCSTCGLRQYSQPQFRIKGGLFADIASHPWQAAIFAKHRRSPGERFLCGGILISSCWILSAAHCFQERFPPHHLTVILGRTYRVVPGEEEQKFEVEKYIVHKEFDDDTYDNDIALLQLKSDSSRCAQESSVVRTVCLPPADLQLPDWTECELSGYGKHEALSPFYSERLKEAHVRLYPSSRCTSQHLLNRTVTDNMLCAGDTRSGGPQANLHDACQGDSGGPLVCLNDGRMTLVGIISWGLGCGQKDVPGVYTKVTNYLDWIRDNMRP
T1 sequence (P00742 41-179 limits assumed): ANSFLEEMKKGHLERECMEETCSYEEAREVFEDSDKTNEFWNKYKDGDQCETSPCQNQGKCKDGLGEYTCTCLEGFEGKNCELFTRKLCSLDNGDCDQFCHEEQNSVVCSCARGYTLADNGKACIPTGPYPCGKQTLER
T1 sequence (P00742 235-488 limits assumed): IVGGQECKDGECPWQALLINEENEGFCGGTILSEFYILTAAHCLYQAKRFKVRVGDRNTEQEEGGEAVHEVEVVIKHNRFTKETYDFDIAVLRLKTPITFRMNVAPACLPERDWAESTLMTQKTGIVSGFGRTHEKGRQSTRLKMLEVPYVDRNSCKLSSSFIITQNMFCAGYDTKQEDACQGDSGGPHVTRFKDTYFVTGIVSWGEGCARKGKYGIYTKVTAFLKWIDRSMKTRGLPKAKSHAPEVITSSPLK

A word on the IC50: it is the concentration that inhibits the measured activity by half. Low readings indicate inhibition by little substance, high ones a need for much substance. On to `Cc1cc(C(=O)Nc2ccc(C(=N)N3CCCCC3)cc2F)n(-c2ccc3cc(Cl)ccc3c2)n1`, for which, on Coagulation factor X [1], the IC50 came to 7 nM.
As a reminder, the Ki is the dissociation constant of the complex between target and ligand, obtained from inhibition or displacement. A high value points to lower affinity. As for `Cc1cc(C(=O)Nc2ccc(C3=NCCN3C)cc2F)n(-c2ccc3cc(Cl)ccc3c2)n1`, the IC50 against Coagulation factor X [1] was 8 nM. For the same compound, the Ki on Coagulation factor X [2] was 1 nM. This compound gave an Activity in series [3] of 0.91 µM.
`Cc1cc(C(=O)Nc2ccc(C(=N)N)cc2F)n(-c2cc3ccccc3cc2F)n1` displayed an IC50 against Coagulation factor X [1] of 777 nM.
Same read-out and setting: next, `CNC(=N)c1ccc(NC(=O)c2cc(C)nn2-c2cc3ccccc3cc2F)c(F)c1`: 114 nM.
On Coagulation factor X [1], `CN(C)C(=N)c1ccc(NC(=O)c2cc(C(F)(F)F)nn2-c2ccc3cc(Cl)ccc3c2)c(F)c1` came in with an IC50 of 1 nM. The compound further returned a Ki at Coagulation factor X [2] of 0.9 nM. The compound further yielded an Activity in series [3] of 1.8 µM.
Regarding `Cc1cc(C(=O)Nc2ccc(C(=N)N(C)C)cc2F)n(-c2cc3ccccc3cc2S(C)(=O)=O)n1`, the IC50 at Coagulation factor X [1] was 12 nM. In addition, at Coagulation factor X [2], the affinity, expressed as Ki, was 2.8 nM. In series [3], this compound came in with an Activity of 0.53 µM.
`N=C(c1ccc(NC(=O)c2nnnn2-c2ccc3cc(Cl)ccc3c2)c(F)c1)N1CCCC1`: the IC50 against Coagulation factor X [1] came out at 7 nM.
Still for that read-out and setting: the result for `COCCN(C)C(=N)c1ccc(NC(=O)c2cc(C)nn2-c2cc3ccccc3cc2F)c(F)c1` reads 110 nM; that for `Cc1cc(C(=O)Nc2ccc(C(=N)N(C)C)s2)n(-c2cc3ccccc3cc2F)n1`, 511 nM.
On Coagulation factor X [1], `CN1CCN=C1c1ccc(NC(=O)c2nnnn2-c2cc3ccccc3cc2F)c(F)c1` displayed an IC50 of 110 nM.
For the compound `Cc1cc(C(=O)Nc2ccc(C(=N)N3CCCCC3)cc2F)n(-c2cc3ccccc3cc2F)n1`, the IC50 against Coagulation factor X [1] was found to be 8 nM. Besides, on Coagulation factor X [2], the inhibition constant Ki is 5.2 nM. The Activity in series [3] amounted to 1.5 µM.
Usually Inhibition stands for how much of the control response was suppressed. Read a low Inhibition as a response near the control. The term clearance denotes the volume of plasma or blood freed of the substance per unit of time. A high value points to a high capacity for elimination. As a reminder, the Vd is a proportionality between amount in the body and measured concentration, not a real space. A high value points to extensive tissue distribution. A word on the bioavailability: it is dose-corrected exposure relative to a reference, in per cent. Low values mean little systemic uptake, high ones much systemic uptake. A word on the half-life: it is the time in which the quantity being followed falls by half. Read a low half-life as fast loss. For the compound `Cc1cc(C(=O)Nc2ccc(C(=N)N(C)C)cc2F)n(-c2ccc3cc(Cl)ccc3c2)n1`, the IC50 on Prothrombin is greater than 10000 nM; against Coagulation factor X [1] it was 5 nM; in series [6] it was greater than 10000 nM; against Serine protease 1, greater than 10000 nM; in [7], greater than 10000 nM; in series [11], greater than 10000 nM. The same compound had an IC50 against Kallikrein-1 greater than 10000 nM. Besides, the values for the Inhibition with Oryctolagus cuniculus [4] and in the series with Oryctolagus cuniculus [8] were 56% and 20%, respectively. The compound further gave a clearance in series [5] of 55.9 mL/min/kg. For the same compound, the Vd in [9] amounted to 82.5 L/kg. This compound returned a bioavailability in [10] of 13.8%. Moreover, at Coagulation factor X [2], the affinity, expressed as Ki, was 0.7 nM. Further, in [3], the Activity worked out at 0.83 µM. The compound further gave a half-life in series [12] of 18 h.
At Coagulation factor X [1], `N=C(c1ccc(NC(=O)c2cc(C(F)(F)F)nn2-c2cc3ccccc3cc2F)c(F)c1)N1CCCC1` registered an IC50 of 10 nM.
In the case of `Cc1cc(C(=O)Nc2ccc(C(=N)N3CCCC3)cc2F)n(-c2ccc3cc(Cl)ccc3c2)n1`, inhibition against Coagulation factor X [1] was half-maximal at 7 nM (IC50).
On Coagulation factor X [1], `Cc1cc(C(=O)Nc2ccc(C3=NCCN3C)cc2F)n(-c2cc3ccccc3cc2F)n1` gave an IC50 of 18 nM. The same compound gave a clearance in series [5] of 49.3 mL/min/kg. Moreover, the Vd in series [9] amounted to 7.6 L/kg. Also, the bioavailability in series [10] worked out at 43.9%. The same compound returned a Ki on Coagulation factor X [2] of 8 nM. Moreover, in series [3], the Activity turned out to be 1.7 µM. The half-life in [12] is 1.8 h.
`Cc1cc(C(=O)Nc2ccc(C(=N)N(C)C)cc2F)n(-c2cc3ccccc3cc2F)n1`: the IC50 (on Prothrombin; in series [6]; on Serine protease 1; in [7]; in series [11]; at Kallikrein-1) was greater than 10000 nM in each case. The same compound had a CL in the series listed under Rattus norvegicus [13] of 54.3 mL/min/kg. The compound also showed a Vd in the series filed under Rattus norvegicus [14] of 49.4 L/kg. Moreover, in series [10], the bioavailability worked out at 24.3%. At Coagulation factor X [2], this compound showed a Ki of 3.9 nM. The Activity in [3] is 1 µM. The same compound showed a T1/2 in the series filed under Rattus norvegicus [15] of 3.1 h.
At Coagulation factor X [1], `CCCN(C)C(=N)c1ccc(NC(=O)c2cc(C)nn2-c2cc3ccccc3cc2F)c(F)c1` came in with an IC50 of 34 nM.
For the compound `Cc1cc(C(=O)Nc2ccc(C(=N)N3CCCC3)cc2F)n(-c2cc3ccccc3cc2F)n1`, on Coagulation factor X [1], the IC50 stood at 6 nM. The compound further yielded a Ki at Coagulation factor X [2] of 4.1 nM. The Activity in series [3] came out at 1.4 µM.
As to `CN(C)C(=N)c1ccc(NC(=O)c2nnnn2-c2ccc3cc(Cl)ccc3c2)c(F)c1`, on Coagulation factor X [1], the 50% inhibitory concentration (IC50) is 2 nM. Further, on Coagulation factor X [2], the inhibition constant (Ki) stood at 0.7 nM. The Activity in series [3] was 2.5 µM.
At Coagulation factor X [1], `CCN(C)C(=N)c1ccc(NC(=O)c2cc(C)nn2-c2cc3ccccc3cc2F)c(F)c1` came in with a half-maximal inhibitory concentration (IC50) of 22 nM.
Same read-out and setting: the result for `N=C(c1ccc(NC(=O)c2nnnn2-c2ccc3cc(Cl)ccc3c2)c(F)c1)N1CCCCC1` reads 8 nM.
Regarding `N=C(c1ccc(NC(=O)c2cc(C(F)(F)F)nn2-c2ccc3cc(Cl)ccc3c2)c(F)c1)N1CCCCC1`, the IC50 against Coagulation factor X [1] turned out to be 4 nM. This IC50 is about 2-fold lower than that of the compound before.
For the compound `Cc1cc(C(=O)Nc2ccc(C(=N)N3CCCCCC3)cc2F)n(-c2cc3ccccc3cc2F)n1`, the IC50 against Coagulation factor X [1] was determined as 50 nM.
For the compound `CN(C)C(=N)c1ccc(NC(=O)c2cc(C(F)(F)F)nn2-c2cc3ccccc3cc2F)c(F)c1`, the figures for the Inhibition in the series on Oryctolagus cuniculus [16] and in the series with Oryctolagus cuniculus [17] were 51% and 20%, respectively. Moreover, the IC50 (on Prothrombin; in series [6]; against Serine protease 1; in series [7]; in series [11]; at Kallikrein-1) was greater than 10000 nM each time. The compound also returned a clearance in series [5] of 14.7 mL/min/kg. In series [9], this compound gave a Vd of 11 L/kg. Also, the bioavailability in series [10] worked out at 46.9%. Further, the Activity in series [3] came out at 1.4 µM. The half-life in [12] is 8.8 h.
On Coagulation factor X [1], `Cc1cc(C(=O)Nc2cccc(C(=N)N(C)C)c2)n(-c2cc3ccccc3cc2F)n1` registered an IC50 of 479 nM.
Still for that read-out and setting: next, `Cc1cc(C(=O)Nc2cc(C(=N)N(C)C)cs2)n(-c2cc3ccccc3cc2F)n1`: 377 nM; `Cc1cc(C(=O)Nc2ccc(C(=N)N(C)Cc3ccccc3)cc2F)n(-c2cc3ccccc3cc2F)n1`: 80 nM.
At Coagulation factor X [1], `Cc1cc(C(=O)Nc2ccc(C3=NCCN3C)cc2F)n(-c2cc3ccccc3cc2S(C)(=O)=O)n1` came in with an IC50 of 14 nM. The compound also showed a Ki at Coagulation factor X [2] of 3.9 nM. In series [3], this compound showed an Activity of 0.78 µM.
Consider `N=C(c1ccc(NC(=O)c2cc(C(F)(F)F)nn2-c2ccc3cc(Cl)ccc3c2)c(F)c1)N1CCCC1`, for which the midpoint of inhibition against Coagulation factor X [1], the IC50, lay at 2 nM.
Still for that read-out and setting: next, `Cc1cc(C(=O)Nc2ccc(C(=N)N3CCCC3)cc2F)n(-c2cc3ccccc3cc2S(C)(=O)=O)n1`: 15 nM.
`Cc1cc(C(=O)Nc2ccc(C(=N)N3CCCCC3)cc2F)n(-c2cc3ccccc3cc2S(C)(=O)=O)n1` showed an IC50 at Coagulation factor X [1] of 28 nM.
On Coagulation factor X [1], `CN1CCN=C1c1ccc(NC(=O)c2cc(C(F)(F)F)nn2-c2ccc3cc(Cl)ccc3c2)c(F)c1` came in with an IC50 of 2 nM. The compound further registered an inhibition constant Ki on Coagulation factor X [2] of 1.2 nM. This compound also displayed an Activity in series [3] of 4.5 µM.
Take `N=C(c1ccc(NC(=O)c2cc(C(F)(F)F)nn2-c2cc3ccccc3cc2F)c(F)c1)N1CCCCC1`: inhibition at Coagulation factor X [1] was half-maximal at 11 nM (IC50).
Still for that read-out and setting: the result for `Cc1cc(C(=O)Nc2ccc(C(=N)N3CCOCC3)cc2F)n(-c2cc3ccccc3cc2F)n1` reads 134 nM.
Regarding `N=C(c1ccc(NC(=O)c2nnnn2-c2cc3ccccc3cc2F)c(F)c1)N1CCCC1`, the IC50 against Coagulation factor X [1] stood at 24 nM.
On the same count and under the same terms, the result for `N=C(c1ccc(NC(=O)c2nnnn2-c2cc3ccccc3cc2F)c(F)c1)N1CCCCC1` reads 76 nM; that for `CN(C)C(=N)c1ccc(NC(=O)c2nnnn2-c2cc3ccccc3cc2F)c(F)c1`, 16 nM; that for `CN1CCN=C1c1ccc(NC(=O)c2nnnn2-c2ccc3cc(Cl)ccc3c2)c(F)c1`, 15 nM.
On the same count and under the same terms, the result for `Cc1cc(C(=O)Nc2ccc(C(=N)N(C)CCN(C)C)cc2F)n(-c2cc3ccccc3cc2F)n1` reads 48 nM; that for `Cc1cc(C(=O)Nc2ccc(C(=N)N3CCC3)cc2F)n(-c2cc3ccccc3cc2F)n1`, 50 nM.
